Where two headings read alike, the source gives them in different places.
Experiments:
HIV BH-10 WT = test: Cell-based assay using BH-10 cells, wild type
HIV mutant strain Y181C = test: Cell-based assay using BH-10 cells, Y181C mutant
Description: (§1) In a typical embodiment, the NNRTIs display an EC50 in a mutant HIV strain of less than approximately 5, 2.5, 1 or 0.1 μM concentration. The degree of cross-resistance against a drug resistant strain of HIV is measured by assessing the EC50 of the desired oxo-pyrimidine compound in the target mutated, i.e., drug resistant, virus.
(§2) The degree of cross-resistance against a drug resistant strain of HIV can easily be measured by assessing the EC50 of the desired indole in the target mutated i.e., drug resistant, virus.

[1] = tested on: HIV mutant strain K103N/Y181C; test: Cell-based assay using BH-10 cells, K103N/Y181C mutant
Description: as §1, §2

[2] = Human immunodeficiency virus 1, read-out: EC50 WT///B, BH-10 cells, wild type
[3] = Human immunodeficiency virus 1, read-out: EC50 Y181C, BH-10 cells, Y181C mutant
[4] = Human immunodeficiency virus 1, read-out: EC50 K103N/Y181C, BH-10 cells, K103N/Y181C mutant
[5] = BH-10 cells, wild type, read-out: EC50 WT///B
[6] = BH-10 cells, Y181C mutant, read-out: EC50 Y181C
[7] = BH-10 cells, K103N/Y181C mutant, read-out: EC50 K103N/Y181C
[8] = read-out: EC50 K103N/Y181C, BH-10 cells, K103N/Y181C mutant

Row | SMILES | EC50 (HIV BH-10 WT; [2]) [nM] | EC50 (HIV mutant strain Y181C; [3]) [nM] | EC50 [1, 4] [nM] | EC50 (HIV BH-10 WT; [5]) [nM] | EC50 (HIV mutant strain Y181C; [6]) [nM] | EC50 [1, 7] [nM] | EC50 (HIV BH-10 WT; read-out: EC50 WT///B, BH-10 cells, wild type) [nM] | EC50 [1, 8] [nM]
1 | COP(=O)(c1cccc(CO)c1)c1c(C(N)=O)[nH]c2ccc(Cl)cc12 (centres unmarked) [Compound 7aq] | 2.5 | 83.1 | 126 | – | – | – | – | –
2 | COP(=O)(c1ccc(C)c(C)c1)c1c(C(N)=O)[nH]c2ccc(Cl)cc12 (centres unmarked) [Compound 7ae] | 0.5 | 11.1 | 1.1 | – | – | – | – | –
3 | COc1cccc(P(=O)(OC)c2c(C(N)=O)[nH]c3ccc(Cl)cc23)c1 (centres unmarked) [Compound 7l] | 0.6 | 38.5 | 21.8 | – | – | – | – | –
4 | COP(=O)(c1cc(F)cc(F)c1)c1c(C(N)=O)[nH]c2ccc(Cl)cc12 (centres unmarked) [Compound 7aj] | 0.6 | 17.7 | 9.1 | – | – | – | – | –
5 | COP(=O)(c1cc(C)cc(C)c1)c1c(C(=O)NCc2ccc[n+]([O-])c2)[nH]c2ccc(Cl)cc12 (centres unmarked) [Compound 22b] | 3.5 | 18.7 | 3.2 | – | – | – | – | –
6 | COP(=O)(c1cc(C)cc(C)c1)c1c(C(=O)NCc2cc[n+]([O-])cc2)[nH]c2ccc(Cl)cc12 (centres unmarked) [Compound 22n] | 2 | 8.8 | 4.5 | – | – | – | – | –
7 | COP(=O)(c1cc(C)cc(C)c1)c1c(C(=O)NCc2c(F)cccc2F)[nH]c2ccc(Cl)cc12 (centres unmarked) [Compound 18aah] | – | – | – | 7 | 22.8 | 16.9 | – | –
8 | COP(=O)(c1cc(C)cc(C)c1)c1c(C(=O)NCc2ccc(Br)cc2)[nH]c2ccc(Cl)cc12 (centres unmarked) [Compound 18k] | 39.3 | 102 | 50.4 | – | – | – | – | –
9 | COP(=O)(c1cc(F)cc(F)c1)c1c(C(=O)NCc2ccncc2)[nH]c2ccc(Cl)cc12 (centres unmarked) [Compound 18e] | 3.5 | 14.8 | 12 | – | – | – | – | –
10 | COP(=O)(c1cc(C)cc(F)c1)c1c(C(=O)NCc2ccncc2)[nH]c2ccc(Cl)cc12 (centres unmarked) [Compound 18d] | 2.3 | 9.4 | 3.7 | – | – | – | – | –
11 | COP(=O)(c1ccccc1)c1c(C(=O)N[C@H](C(N)=O)c2ccccc2)[nH]c2ccc(Cl)cc12 (some centres unmarked) [Compound 18aao] | 38.1 | 287 | 118 | – | – | – | – | –
12 | COP(=O)(c1cc(C)cc(C#N)c1)c1c(C(=O)NCc2cncn2C)[nH]c2ccc(Cl)cc12 (centres unmarked) [Compound 18aag] | 3.1 | 18.8 | 2.9 | – | – | – | – | –
13 | COP(=O)(c1ccsc1)c1c(C(N)=O)[nH]c2ccc(Cl)cc12 (centres unmarked) [Compound 52a] | 0.5 | 1.5 | 6.3 | – | – | – | – | –
14 | CCc1cccc(P(=O)(OC)c2c(C(N)=O)[nH]c3ccc(Cl)cc23)c1 (centres unmarked) [Compound 7d] | 0.6 | 6.5 | 1.4 | – | – | – | – | –
15 | CCOP(=O)(c1cccc(C(C)C)c1)c1c(C(N)=O)[nH]c2ccc(Cl)cc12 (centres unmarked) [Compound 6i] | 1.2 | 9.1 | 3.5 | – | – | – | – | –
16 | COP(=O)(c1ccccc1)c1c(C(=O)NCc2ccco2)[nH]c2ccc(Cl)cc12 (centres unmarked) [Compound 18at] | 1.8 | 1.5 | 0.5 | – | – | – | – | –
17 | COP(=O)(c1cccc(C)c1)c1c(C(=O)NCc2ccco2)[nH]c2ccc(Cl)cc12 (centres unmarked) [Compound 18b] | 3.6 | 10.1 | 4 | – | – | – | – | –
18 | COP(=O)(c1cc(F)cc(F)c1)c1c(C(=O)NCc2cncn2C)[nH]c2ccc(Cl)cc12 (centres unmarked) [Compound 18aae] | 2.6 | 10.5 | 2.7 | – | – | – | – | –
19 | COP(=O)(c1cc(C)cc(C)c1)c1c(C(=O)NCCc2cc[n+]([O-])cc2)[nH]c2ccc(Cl)cc12 (centres unmarked) [Compound 22c] | 2.8 | 10.1 | 26.8 | – | – | – | – | –
20 | COP(=O)(c1cc(Cl)cc(Cl)c1)c1c(C(N)=O)[nH]c2ccc(Cl)cc12 (centres unmarked) [Compound 7b] | 1.2 | 5.3 | 16.8 | – | – | – | – | –
21 | COP(=O)(c1cc(C)cc(C#N)c1)c1c(C(N)=O)[nH]c2ccc(Cl)cc12 (centres unmarked) [Compound 7as] | 1.4 | 4.8 | 2.9 | – | – | – | – | –
22 | COP(=S)(c1ccccc1)c1c(C(N)=O)[nH]c2ccc(Cl)cc12 (centres unmarked) [Compound 25b] | 0.4 | 41.4 | 89.9 | – | – | – | – | –
23 | COP(=O)(c1ccccc1F)c1c(C(N)=O)[nH]c2ccc(Cl)cc12 (centres unmarked) [Compound 7al] | – | – | – | 0.5 | 13.9 | 2.6 | – | –
24 | COP(=O)(c1cc(C)cc(C)c1)c1c(C(=O)NCc2cccc[n+]2[O-])[nH]c2ccc(Cl)cc12 (centres unmarked) [Compound 22p] | 1.9 | 51.3 | 17.9 | – | – | – | – | –
25 | COP(=O)(c1ccccc1C)c1c(C(N)=O)[nH]c2ccc(Cl)cc12 (centres unmarked) [Compound 7ad] | – | – | – | 1.3 | 32 | 4.7 | – | –
26 | CCOP(=O)(c1cccs1)c1c(C(N)=O)[nH]c2ccc(Cl)cc12 (centres unmarked) [Compound 51] | 2.2 | 52.9 | 65.6 | – | – | – | – | –

Row | SMILES | EC50 (HIV BH-10 WT; [2]) [nM] | EC50 (HIV mutant strain Y181C; [3]) [nM] | EC50 [1, 4] [nM] | EC50 (HIV BH-10 WT; [5]) [nM] | EC50 (HIV mutant strain Y181C; [6]) [nM] | EC50 [1, 7] [nM] | EC50 (HIV BH-10 WT; read-out: EC50 WT///B, BH-10 cells, wild type) [nM] | EC50 [1, 8] [nM]
27 | CCOP(=O)(c1cccc(C)c1)c1c(C(N)=O)[nH]c2ccc(Cl)cc12 (centres unmarked) [Compound 6ab] | 0.5 | 34.8 | 19.6 | – | – | – | – | –
28 | COP(=O)(c1cc(C)cc(C)c1)c1c(C(=O)NCc2cncnc2)[nH]c2ccc(Cl)cc12 (centres unmarked) [Compound 18j] | – | – | – | 3.6 | 5.1 | 1.9 | – | –
29 | COP(=O)(c1cc(C)cc(C)c1)c1c(C(=O)NCc2cnccn2)[nH]c2ccc(Cl)cc12 (centres unmarked) [Compound 18i] | 3 | 16.8 | 1.8 | – | – | – | – | –
30 | COP(=O)(c1ccccc1)c1c(C(N)=O)[nH]c2ncc(Cl)cc12 (centres unmarked) [Compound 7-Aza] | – | – | – | 14.7 | > 1250 | 193 | – | –
31 | COP(=O)(c1cc(C)cc(C)c1)c1c(C(=O)NCc2ccncc2)[nH]c2ccc(Cl)c(F)c12 (centres unmarked) [Compound 18r] | 3.8 | 16.5 | 3.6 | – | – | – | – | –
32 | COP(=O)(c1cccc(C(F)(F)F)c1)c1c(C(N)=O)[nH]c2ccc(Cl)cc12 (centres unmarked) [Compound 7e] | 0.9 | 3.2 | 1.2 | – | – | – | – | –
33 | CCc1cc(C)cc(P(=O)(OC)c2c(C(N)=O)[nH]c3ccc(Cl)cc23)c1 (centres unmarked) [Compound 7w] | 0.4 | 5.5 | 1.2 | – | – | – | – | –
34 | CCOP(=O)(c1cc(C)ccc1C)c1c(C(N)=O)[nH]c2ccc(Cl)cc12 (centres unmarked) [Compound 6aa] | – | – | – | 0.2 | 1.9 | 1.6 | – | –
35 | CCOP(=O)(c1cccc(C#N)c1)c1c(C(N)=O)[nH]c2ccc(Cl)cc12 (centres unmarked) [Compound 6g] | 9.5 | – | 195 | – | – | – | – | –
36 | COP(=O)(c1cc(C)cc(C)c1)c1c(C(=O)NCc2ccncc2)[nH]c2ccc(Cl)cc12 (centres unmarked) [Compound 18ax] | 3 | 7.2 | 2.3 | – | – | – | – | –
37 | COP(=O)(c1c(C(N)=O)[nH]c2ccc(Cl)cc12)C1CCCCC1 (centres unmarked) [Compound 57a] | 1.7 | – | 162 | – | – | – | – | –
38 | COP(=O)(c1cccc(C(C)C)c1)c1c(C(N)=O)[nH]c2ccc(Cl)cc12 (centres unmarked) [Compound 7g] | 2.5 | 8.8 | 7.7 | – | – | – | – | –
39 | COP(=O)(c1cccc(-c2ccccc2)c1)c1c(C(N)=O)[nH]c2ccc(Cl)cc12 (centres unmarked) [Compound 7i] | 9.9 | 398 | 380 | – | – | – | – | –
40 | COP(=O)(c1cc(C)cc(C)c1)c1c(C(=O)NCCc2ccncc2)[nH]c2ccc(Cl)cc12 (centres unmarked) [Compound 18g] | 11.6 | 30.6 | 9.8 | – | – | – | – | –
41 | CCc1cccc(P(=O)(OC)c2c(C(=O)NCc3ccncc3)[nH]c3ccc(Cl)cc23)c1 (centres unmarked) [Compound 18ap] | 5.8 | 3.7 | 5.8 | – | – | – | – | –
42 | COP(=O)(c1cc(C)cc(C)c1)c1c(C(=O)NCc2cc[n+]([O-])cc2F)[nH]c2ccc(Cl)cc12 (centres unmarked) [Compound 22d] | 2.9 | 1.5 | 6.7 | – | – | – | – | –
43 | COP(=O)(c1cc(C)cc(C)c1)c1c(C(=O)NCc2ccccc2C(F)(F)F)[nH]c2ccc(Cl)cc12 (centres unmarked) [Compound 18aal] | 30.1 | 19.7 | 21.8 | – | – | – | – | –
44 | CCOP(=O)(c1ccccc1C)c1c(C(N)=O)[nH]c2ccc(Cl)cc12 (centres unmarked) [Compound 6x] | – | – | – | 21.3 | – | 448 | – | –
45 | COP(=O)(c1cc(F)cc(F)c1)c1c(C(=O)NCc2ccc(C#N)cc2)[nH]c2ccc(Cl)cc12 (centres unmarked) [Compound 18q] | 3 | 35.7 | 54.2 | – | – | – | – | –
46 | COP(=O)(c1cc(C)cc(C)c1)c1c(C(=O)NCc2cccnc2)[nH]c2ccc(Cl)c(F)c12 (centres unmarked) [Compound 18aan] | 15 | 304 | 600 | – | – | – | – | –
47 | CCOP(=O)(c1cccc(OC)c1)c1c(C(N)=O)[nH]c2ccc(Cl)cc12 (centres unmarked) [Compound 6m] | 2.3 | – | 66.4 | – | – | – | – | –
48 | CCOP(=O)(c1ccc(C)cc1)c1c(C(N)=O)[nH]c2ccc(Cl)cc12 (centres unmarked) [Compound 6w] | 7.2 | – | > 1250 | – | – | – | – | –
49 | COc1cccc(P(=O)(OC)c2c(C(=O)NCc3ccncc3)[nH]c3ccc(Cl)cc23)c1 (centres unmarked) [Compound 18av] | 0.7 | – | 2.4 | – | – | – | 0.8 | 1.4
50 | CCOP(=O)(c1ccc(C)c(C)c1)c1c(C(N)=O)[nH]c2ccc(Cl)cc12 (centres unmarked) [Compound 6y] | – | – | – | 2.6 | – | > 1250 | – | –
51 | CCOP(=O)(c1cccc(C(F)(F)F)c1)c1c(C(N)=O)[nH]c2ccc(Cl)cc12 (centres unmarked) [Compound 6f] | 6.7 | – | 498 | – | – | – | – | –
52 | COP(=O)(c1cc(C)cc(C)c1)c1c(C(=O)NCc2ccc(F)cc2F)[nH]c2ccc(Cl)cc12 (centres unmarked) [Compound 18aaj] | – | – | 41.6 | – | – | – | – | 25.8
